# Data from the supplement of paper PMC12463676, “Small-molecule dissolution of stress granules by redox modulation benefits ALS models” (Nature Chemical Biology, 2025).
# How the values were obtained:
# potassium arsenate = compound: O=[As]([O-])(O)O.[K+] [potassium arsenate]; assay: thermal stability z-score vs DMSO; higher = more thermally stabilized by treatment; conditions: HeLa; arsenate concentration 1 mM
# Experimental: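 Cellular thermal proteome profiling in HeLa cells treated with 1 mM arsenate for 1 h (DMSO pretreatment), heated to ten temperatures (37-66.3 °C). Soluble protein was quantified by TMT mass spectrometry relative to DMSO controls; the thermal stability score was transformed to a z-score; mean of n = 3 experiments.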
# lipoamide = compound: NC(=O)CCCCC1CCSS1 [lipoamide]; assay: as above; conditions: HeLa, lipoamide concentration 100 µM
# Experimental: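 Cellular thermal proteome profiling in HeLa cells. Cells were treated with 100 µM lipoamide for 1 h, with or without 1 mM arsenate for a further 1 h, then heated to ten temperatures (37-66.3 °C), and soluble protein was quantified by TMT mass spectrometry relative to 0.1% DMSO controls. The thermal stability score (sum of log2 fold changes minus the abundance score) was transformed to a z-score; mean of n = 3 experiments.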
# [1] = arsenate co-treatment: 1 mM arsenate 1 h
# 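Note: each temperature applied for 3 min, abundance score taken as mean log2 fold change at the two lowest temperatures, z-score obtained by mean subtraction and division by SD.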
# Sequence of UniProt Q9Y2T3 (Q9Y2T3 whole entry): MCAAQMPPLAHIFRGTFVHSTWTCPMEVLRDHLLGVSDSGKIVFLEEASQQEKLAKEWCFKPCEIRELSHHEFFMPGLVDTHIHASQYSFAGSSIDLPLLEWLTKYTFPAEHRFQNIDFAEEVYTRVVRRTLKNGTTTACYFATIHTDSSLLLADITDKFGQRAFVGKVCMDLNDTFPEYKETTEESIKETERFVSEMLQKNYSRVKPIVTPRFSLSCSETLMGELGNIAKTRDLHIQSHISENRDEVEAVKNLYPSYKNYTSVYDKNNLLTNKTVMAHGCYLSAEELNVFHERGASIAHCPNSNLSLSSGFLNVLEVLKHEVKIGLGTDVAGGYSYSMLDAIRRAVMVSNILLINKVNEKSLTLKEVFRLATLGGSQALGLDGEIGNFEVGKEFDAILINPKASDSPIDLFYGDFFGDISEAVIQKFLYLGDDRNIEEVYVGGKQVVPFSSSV
# Sequence of UniProt Q9BR76 (Q9BR76 whole entry): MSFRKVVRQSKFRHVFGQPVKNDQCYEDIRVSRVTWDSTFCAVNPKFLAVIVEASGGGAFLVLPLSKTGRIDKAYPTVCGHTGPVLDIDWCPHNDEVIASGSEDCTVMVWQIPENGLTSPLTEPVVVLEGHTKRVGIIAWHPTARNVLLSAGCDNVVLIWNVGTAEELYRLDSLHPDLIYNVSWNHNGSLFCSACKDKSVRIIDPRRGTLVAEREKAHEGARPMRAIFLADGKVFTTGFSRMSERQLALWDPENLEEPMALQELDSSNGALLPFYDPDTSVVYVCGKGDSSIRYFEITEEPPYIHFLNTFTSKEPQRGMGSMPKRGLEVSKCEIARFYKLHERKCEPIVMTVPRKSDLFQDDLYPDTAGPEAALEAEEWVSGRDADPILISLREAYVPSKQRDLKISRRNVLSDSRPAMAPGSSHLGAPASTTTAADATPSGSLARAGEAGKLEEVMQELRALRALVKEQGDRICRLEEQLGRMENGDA
# Sequence of UniProt P61764 (P61764 whole entry): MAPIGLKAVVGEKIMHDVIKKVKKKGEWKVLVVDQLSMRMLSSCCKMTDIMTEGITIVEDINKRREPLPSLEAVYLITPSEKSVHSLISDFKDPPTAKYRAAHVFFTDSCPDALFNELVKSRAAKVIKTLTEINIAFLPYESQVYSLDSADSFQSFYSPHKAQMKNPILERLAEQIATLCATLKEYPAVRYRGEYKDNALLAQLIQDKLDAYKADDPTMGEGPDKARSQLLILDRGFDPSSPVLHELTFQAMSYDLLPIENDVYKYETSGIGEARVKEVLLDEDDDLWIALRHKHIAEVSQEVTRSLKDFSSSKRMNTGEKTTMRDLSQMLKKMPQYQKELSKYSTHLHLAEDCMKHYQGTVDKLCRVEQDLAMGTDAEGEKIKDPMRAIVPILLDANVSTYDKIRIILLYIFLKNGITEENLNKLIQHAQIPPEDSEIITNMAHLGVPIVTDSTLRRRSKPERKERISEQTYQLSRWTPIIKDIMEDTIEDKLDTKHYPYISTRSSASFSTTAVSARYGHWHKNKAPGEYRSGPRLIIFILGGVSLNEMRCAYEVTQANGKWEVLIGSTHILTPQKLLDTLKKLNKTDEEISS
# Sequence of UniProt O95159 (O95159 whole entry): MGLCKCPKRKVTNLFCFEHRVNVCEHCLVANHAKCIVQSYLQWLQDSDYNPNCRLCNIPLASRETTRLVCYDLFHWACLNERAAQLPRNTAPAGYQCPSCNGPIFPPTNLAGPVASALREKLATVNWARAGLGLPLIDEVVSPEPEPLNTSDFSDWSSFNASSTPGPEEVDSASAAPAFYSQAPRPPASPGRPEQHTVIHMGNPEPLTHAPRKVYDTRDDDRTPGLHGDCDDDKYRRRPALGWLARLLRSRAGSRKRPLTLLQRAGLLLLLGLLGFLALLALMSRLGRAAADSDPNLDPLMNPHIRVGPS
# Sequence of UniProt P24534 (P24534 whole entry): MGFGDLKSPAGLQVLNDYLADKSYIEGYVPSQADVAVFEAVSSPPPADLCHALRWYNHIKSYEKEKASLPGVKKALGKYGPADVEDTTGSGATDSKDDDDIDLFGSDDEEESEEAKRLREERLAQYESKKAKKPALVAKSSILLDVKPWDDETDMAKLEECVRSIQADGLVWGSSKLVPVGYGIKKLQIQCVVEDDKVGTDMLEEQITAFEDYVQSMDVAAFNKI
# Sequence of UniProt O96017 (O96017 whole entry): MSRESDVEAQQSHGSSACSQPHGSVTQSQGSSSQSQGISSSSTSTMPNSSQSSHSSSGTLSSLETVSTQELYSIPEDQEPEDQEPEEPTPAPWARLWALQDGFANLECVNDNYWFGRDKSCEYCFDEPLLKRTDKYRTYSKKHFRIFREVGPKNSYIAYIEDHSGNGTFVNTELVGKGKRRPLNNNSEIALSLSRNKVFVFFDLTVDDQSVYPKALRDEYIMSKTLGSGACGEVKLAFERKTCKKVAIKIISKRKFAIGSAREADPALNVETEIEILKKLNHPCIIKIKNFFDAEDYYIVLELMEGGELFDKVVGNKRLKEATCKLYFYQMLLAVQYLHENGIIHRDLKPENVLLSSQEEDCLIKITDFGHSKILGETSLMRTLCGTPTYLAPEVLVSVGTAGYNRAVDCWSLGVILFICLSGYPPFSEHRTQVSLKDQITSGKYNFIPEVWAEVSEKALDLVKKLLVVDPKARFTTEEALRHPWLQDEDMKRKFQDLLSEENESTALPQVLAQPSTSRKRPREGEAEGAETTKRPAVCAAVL
# Sequence of UniProt P55789 (P55789 whole entry, looked up): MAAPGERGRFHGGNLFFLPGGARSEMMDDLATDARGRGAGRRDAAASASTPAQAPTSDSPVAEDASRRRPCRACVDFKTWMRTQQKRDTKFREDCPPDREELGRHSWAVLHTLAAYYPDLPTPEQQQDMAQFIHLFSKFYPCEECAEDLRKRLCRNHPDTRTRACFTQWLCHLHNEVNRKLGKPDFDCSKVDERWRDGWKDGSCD
# Sequence of UniProt Q53H96 (Q53H96 whole entry): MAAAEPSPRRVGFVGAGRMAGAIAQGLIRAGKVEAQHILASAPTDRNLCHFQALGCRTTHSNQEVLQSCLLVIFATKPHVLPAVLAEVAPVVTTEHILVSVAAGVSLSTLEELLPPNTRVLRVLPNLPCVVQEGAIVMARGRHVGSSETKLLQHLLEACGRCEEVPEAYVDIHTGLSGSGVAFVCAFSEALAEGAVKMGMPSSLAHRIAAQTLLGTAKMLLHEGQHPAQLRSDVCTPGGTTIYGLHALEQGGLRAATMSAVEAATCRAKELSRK
# Sequence of UniProt Q9UH92 (Q9UH92 whole entry): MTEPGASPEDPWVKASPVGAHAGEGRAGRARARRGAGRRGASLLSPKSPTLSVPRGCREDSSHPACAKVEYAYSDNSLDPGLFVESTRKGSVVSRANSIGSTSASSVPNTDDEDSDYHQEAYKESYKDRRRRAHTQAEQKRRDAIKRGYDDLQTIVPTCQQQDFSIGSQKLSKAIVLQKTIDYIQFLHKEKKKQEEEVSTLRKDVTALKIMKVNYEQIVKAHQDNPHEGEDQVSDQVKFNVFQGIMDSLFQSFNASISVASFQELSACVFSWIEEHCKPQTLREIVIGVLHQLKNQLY
# Sequence of UniProt Q92966 (Q92966 whole entry): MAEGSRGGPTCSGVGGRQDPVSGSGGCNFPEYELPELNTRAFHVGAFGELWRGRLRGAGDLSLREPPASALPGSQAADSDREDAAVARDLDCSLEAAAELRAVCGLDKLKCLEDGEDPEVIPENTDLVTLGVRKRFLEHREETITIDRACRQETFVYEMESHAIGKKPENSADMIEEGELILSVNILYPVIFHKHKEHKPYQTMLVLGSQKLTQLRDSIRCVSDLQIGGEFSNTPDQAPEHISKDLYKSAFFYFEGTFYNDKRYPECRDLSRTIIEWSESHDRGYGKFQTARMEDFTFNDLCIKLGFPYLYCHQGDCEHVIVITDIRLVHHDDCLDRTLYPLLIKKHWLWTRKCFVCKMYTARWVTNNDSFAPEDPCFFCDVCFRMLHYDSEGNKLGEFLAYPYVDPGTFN
# Sequence of UniProt Q08499 (Q08499 whole entry): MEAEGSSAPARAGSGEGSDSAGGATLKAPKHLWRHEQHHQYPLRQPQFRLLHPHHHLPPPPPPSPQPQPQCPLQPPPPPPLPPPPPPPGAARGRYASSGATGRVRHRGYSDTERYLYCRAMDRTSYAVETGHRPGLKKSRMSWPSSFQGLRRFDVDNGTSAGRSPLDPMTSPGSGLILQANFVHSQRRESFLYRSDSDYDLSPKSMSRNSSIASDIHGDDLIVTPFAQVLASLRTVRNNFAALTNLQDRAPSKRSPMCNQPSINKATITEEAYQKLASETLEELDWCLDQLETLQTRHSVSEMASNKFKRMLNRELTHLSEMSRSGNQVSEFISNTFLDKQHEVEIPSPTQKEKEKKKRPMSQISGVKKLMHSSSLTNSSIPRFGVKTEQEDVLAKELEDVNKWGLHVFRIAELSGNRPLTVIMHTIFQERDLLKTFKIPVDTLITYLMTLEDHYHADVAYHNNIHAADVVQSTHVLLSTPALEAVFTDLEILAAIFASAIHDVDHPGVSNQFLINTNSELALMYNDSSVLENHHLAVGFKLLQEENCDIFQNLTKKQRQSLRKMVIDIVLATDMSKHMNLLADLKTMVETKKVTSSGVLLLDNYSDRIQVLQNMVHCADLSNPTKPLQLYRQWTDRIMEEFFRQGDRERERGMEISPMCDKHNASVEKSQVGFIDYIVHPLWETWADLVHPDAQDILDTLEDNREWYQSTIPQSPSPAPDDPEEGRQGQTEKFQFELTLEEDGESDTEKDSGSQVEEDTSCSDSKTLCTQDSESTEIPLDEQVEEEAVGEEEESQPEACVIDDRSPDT
# Sequence of UniProt Q9BVV7 (Q9BVV7 whole entry): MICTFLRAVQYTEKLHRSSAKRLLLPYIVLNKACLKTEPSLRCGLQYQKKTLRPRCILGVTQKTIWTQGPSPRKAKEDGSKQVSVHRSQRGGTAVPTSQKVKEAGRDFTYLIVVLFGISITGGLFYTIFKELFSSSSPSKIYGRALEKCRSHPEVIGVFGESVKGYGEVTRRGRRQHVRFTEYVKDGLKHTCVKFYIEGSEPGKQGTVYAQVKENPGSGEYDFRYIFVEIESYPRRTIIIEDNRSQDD
Target,thermal stability z-score (potassium arsenate),thermal stability z-score (lipoamide; [1]),thermal stability z-score (lipoamide; arsenate co-treatment: none)
RPL19 (UniProt P84098),-1.08,0.269,-0.195
GFER (UniProt P55789),0.816,0.239,0.231
ZFPL1 (UniProt O95159),-1.02,-0.552,-1.06
CORO1B (UniProt Q9BR76),-0.66,-0.396,-0.129
UBE2H (UniProt P62256),0.295,0.213,-0.108
ARAF (UniProt P10398),-0.275,-0.299,-0.252
PAP1 (UniProt Q06141),-0.156,-0.00124,-0.19
TIMM21 (UniProt Q9BVV7),0.255,0.0115,0.000788
HPRT1 (UniProt P00492),0.0837,0.468,0.716
DCTN2 (UniProt Q13561),0.914,0.321,0.719
RPL32 (UniProt P62910),-0.93,0.158,-0.028
AMMECR1 (UniProt Q9Y4X0),-0.217,-0.157,-0.0642
EEF2K (UniProt O00418),-0.0657,-0.0522,-0.0721
EEF1B2 (UniProt P24534),0.849,0.748,0.472
MKNK1 (UniProt Q9BUB5),-1.53,-0.146,-0.928
SLC19A1 (UniProt P41440),0.0431,-0.381,-0.505
LRP1 (UniProt Q07954),-0.0899,-1.1,-1.01
MLX (UniProt Q9UH92),0.0805,-0.0303,-0.272

Target,thermal stability z-score (potassium arsenate),thermal stability z-score (lipoamide; [1]),thermal stability z-score (lipoamide; arsenate co-treatment: none)
P4HA1 (UniProt P13674),1.27,-4.31,-3.57
ERLIN2 (UniProt O94905),-0.0487,-1.05,-0.752
CHEK2 (UniProt O96017),-0.161,-0.0379,-0.222
PSMD10 (UniProt O75832),-0.327,-0.817,0.0147
PYCRL (UniProt Q53H96),0.43,0.827,0.862
IL6ST (UniProt P40189),-1.84,-1.74,-1
CEP192 (UniProt Q8TEP8),0.0297,-0.251,-0.467
ATXN2 (UniProt Q99700),-0.245,0.168,0.133
SNAPC3 (UniProt Q92966),-0.108,-0.219,-0.258
CCBL1|KYAT1,0.447,0.0425,0.343
FBXL17 (UniProt Q9UF56),-0.139,0.0273,-0.0196
GDA (UniProt Q9Y2T3),0.0168,0.244,0.292
CAT (UniProt P04040),0.346,0.883,1.41
EIF3H (UniProt O15372),0.162,-0.579,-0.608
STXBP1 (UniProt P61764),0.156,-0.206,0.0929
ERI1 (UniProt Q8IV48),-1.14,0.0943,0.343
PDE4D (UniProt Q08499),0.101,0.651,0.623
